Experimental data published in the supplement of paper PMC13380429.

Tests used:
[1] = tested on: A549-ACE2 infected with SARS-CoV-2; test: cell count relative to DMSO; higher = less toxic; conditions: 24 h
Caco-2 [2] = test: cell viability relative to DMSO; higher = less toxic; conditions: 72 h
Calu-3 [3] = test: as above; conditions: 72 h
HepG2 [4] = test: as above; conditions: 72 h
U2OS [5] = test: as above; conditions: 72 h
Vero E6 [6] = test: as above; conditions: 72 h
[7] = tested on: A549-ACE2 infected with SARS-CoV-2; test: SARS-CoV-2 infection rate relative to DMSO; higher = more infection; conditions: 24 h
A549-ACE2 [8] = test: drug-induced phospholipidosis relative to tamoxifen; higher = more phospholipidosis
[9] = tested on: A549-ACE2 infected with SARS-CoV-2; test: morphology score (similarity to uninfected cells); higher = more like uninfected cells; conditions: 24 h
Caco-2 [10] = test: relative viability EC50 (midpoint between 100% and the lowest measured viability); higher = less toxic; conditions: 72 h
Calu-3 [11] = test: as above; conditions: 72 h
HepG2 [12] = test: as above; conditions: 72 h
U2OS [13] = test: as above; conditions: 72 h
Caco-2 [14] = test: drug sensitivity score (DSS) for viability; higher = more toxic; extreme values may be limits of the assay; conditions: 72 h
Calu-3 [15] = test: as above; conditions: 72 h
HepG2 [16] = test: as above; conditions: 72 h
U2OS [17] = test: as above; conditions: 72 h
Vero E6 [18] = test: as above; conditions: 72 h
A549-ACE2 [19] = test: phospholipidosis EC50; higher = less potent phospholipidosis inducer
Vero E6 [20] = test: relative viability EC50 (midpoint between 100% and the lowest measured viability); higher = less toxic; conditions: 72 h

Nc1nc(O)c2[nH]nnc2n1 [azaguanine-8]
Conditions	SARS-CoV-2 infection rate, [7] [%]	cell count, [1] [%]	cell viability, Caco-2 [2] [%]	cell viability, Calu-3 [3] [%]	cell viability, HepG2 [4] [%]	cell viability, U2OS [5] [%]	cell viability, Vero E6 [6] [%]	morphology score, [9]
1 nM	–	–	104	94.4	102	102	104	–
10 nM	–	–	105	94	100	95.4	103	–
0.1 µM	106	102	–	–	–	–	–	0.12
100 nM	–	–	93.5	89.5	100	102	105	–
0.3 µM	91	104	–	–	–	–	–	0.27
1 µM	96	102	–	–	–	–	–	0.08
1000 nM	–	–	91.9	89.5	106	97.6	103	–
3 µM	94	102	–	–	–	–	–	0.33
10000 nM	–	–	91.1	81.2	29.6	89.2	52	–

drug-induced phospholipidosis [%], A549-ACE2 [8]
Conditions	0.3 µM	0.833333 µM	3.33333 µM	6.66667 µM	10 µM	30 µM
24 h	2.81	-0.65	-1.26	-0.07	3.53	16.6
48 h	3.95	-1.52	-4.45	-3.51	-4.77	–
72 h	5.19	-2.08	-1.89	-4.08	-4.93	–

Conditions	drug sensitivity score	relative viability EC50 [µM]
Caco-2 [10]	–	> 10
Caco-2 [14]	0	–
Calu-3 [11]	–	> 10
Calu-3 [15]	1.4	–
HepG2 [12]	–	3.6
HepG2 [16]	3.4	–
U2OS [13]	–	> 10
U2OS [17]	0.1	–
Vero E6 [18]	2.3	–

CNCCCCOc1ccccc1Cc1ccccc1 [bifemelane]
Conditions	SARS-CoV-2 infection rate [%]	cell count [%]	cell viability [%]	morphology score	phospholipidosis EC50 [µM]
A549-ACE2 [19], 24 h	–	–	–	–	5.4
A549-ACE2 [19], 48 h	–	–	–	–	5.1
A549-ACE2 [19], 72 h	–	–	–	–	6.67
Caco-2 [2], 1 nM	–	–	100	–	–
Caco-2 [2], 10 nM	–	–	101	–	–
Caco-2 [2], 100 nM	–	–	91.5	–	–
Caco-2 [2], 1000 nM	–	–	102	–	–
Caco-2 [2], 10000 nM	–	–	89.3	–	–
Calu-3 [3], 1 nM	–	–	112	–	–
Calu-3 [3], 10 nM	–	–	104	–	–
Calu-3 [3], 100 nM	–	–	95.8	–	–
Calu-3 [3], 1000 nM	–	–	90.1	–	–
Calu-3 [3], 10000 nM	–	–	104	–	–
HepG2 [4], 1 nM	–	–	98.7	–	–
HepG2 [4], 10 nM	–	–	101	–	–
HepG2 [4], 100 nM	–	–	89.5	–	–
HepG2 [4], 1000 nM	–	–	92.7	–	–
HepG2 [4], 10000 nM	–	–	85	–	–
U2OS [5], 1 nM	–	–	96.6	–	–
U2OS [5], 10 nM	–	–	91.1	–	–
U2OS [5], 100 nM	–	–	102	–	–
U2OS [5], 1000 nM	–	–	96.5	–	–
U2OS [5], 10000 nM	–	–	92.6	–	–
Vero E6 [6], 1 nM	–	–	109	–	–
Vero E6 [6], 10 nM	–	–	102	–	–
Vero E6 [6], 100 nM	–	–	96.8	–	–
Vero E6 [6], 1000 nM	–	–	100	–	–
Vero E6 [6], 10000 nM	–	–	89.5	–	–
[1], 0.3 µM	–	100	–	–	–
[1], 3 µM	–	106	–	–	–
[1], 10 µM	–	115	–	–	–
[1], 30 µM	–	110	–	–	–
[7], 0.3 µM	101	–	–	–	–
[7], 3 µM	96	–	–	–	–
[7], 10 µM	43	–	–	–	–
[7], 30 µM	16	–	–	–	–
[9], 0.3 µM	–	–	–	-0.03	–
[9], 3 µM	–	–	–	0.43	–
[9], 10 µM	–	–	–	0.7	–
[9], 30 µM	–	–	–	0.69	–

drug-induced phospholipidosis [%], A549-ACE2 [8]
Conditions	0.3 µM	0.833333 µM	3.33333 µM	6.66667 µM	10 µM	30 µM
24 h	0.28	1.11	22.9	61.8	79.9	96.4
48 h	-0.08	-3.86	22.6	74.8	87.4	108
72 h	3.27	-0.257	16.8	61.6	86.2	116

Conditions	drug sensitivity score	relative viability EC50 [µM]
Caco-2 [10]	–	> 10
Caco-2 [14]	0	–
Calu-3 [11]	–	> 10
Calu-3 [15]	0	–
HepG2 [12]	–	> 10
HepG2 [16]	0.6	–
U2OS [13]	–	> 10
U2OS [17]	0	–
Vero E6 [18]	0	–
Vero E6 [20]	–	> 10

CC/C(=C(/c1ccc(OCCN(C)C)cc1)c1cccc(O)c1)c1ccccc1 [droloxifene]
Conditions	SARS-CoV-2 infection rate [%]	cell count [%]	cell viability [%]	morphology score	phospholipidosis EC50 [µM]
A549-ACE2 [19], 24 h	–	–	–	–	1.57
A549-ACE2 [19], 48 h	–	–	–	–	3.25
A549-ACE2 [19], 72 h	–	–	–	–	3.45
Caco-2 [2], 1 nM	–	–	100	–	–
Caco-2 [2], 10 nM	–	–	97.1	–	–
Caco-2 [2], 100 nM	–	–	92.5	–	–
Caco-2 [2], 1000 nM	–	–	97.4	–	–
Caco-2 [2], 10000 nM	–	–	43.8	–	–
Calu-3 [3], 1 nM	–	–	100	–	–
Calu-3 [3], 10 nM	–	–	96.2	–	–
Calu-3 [3], 100 nM	–	–	98.7	–	–
Calu-3 [3], 1000 nM	–	–	87.1	–	–
Calu-3 [3], 10000 nM	–	–	11	–	–
HepG2 [4], 1 nM	–	–	87.1	–	–
HepG2 [4], 10 nM	–	–	101	–	–
HepG2 [4], 100 nM	–	–	96.9	–	–
HepG2 [4], 1000 nM	–	–	109	–	–
HepG2 [4], 10000 nM	–	–	48.8	–	–
U2OS [5], 1 nM	–	–	97.7	–	–
U2OS [5], 10 nM	–	–	91.5	–	–
U2OS [5], 100 nM	–	–	102	–	–
U2OS [5], 1000 nM	–	–	96	–	–
U2OS [5], 10000 nM	–	–	75.5	–	–
Vero E6 [6], 1 nM	–	–	95.8	–	–
Vero E6 [6], 10 nM	–	–	99.1	–	–
Vero E6 [6], 100 nM	–	–	93.7	–	–
Vero E6 [6], 1000 nM	–	–	95.8	–	–
Vero E6 [6], 10000 nM	–	–	92.6	–	–
[1], 0.3 µM	–	102	–	–	–
[1], 3 µM	–	113	–	–	–
[1], 10 µM	–	110	–	–	–
[1], 30 µM	–	102	–	–	–
[7], 0.3 µM	93	–	–	–	–
[7], 3 µM	64	–	–	–	–
[7], 10 µM	13	–	–	–	–
[7], 30 µM	39	–	–	–	–
[9], 0.3 µM	–	–	–	0.24	–
[9], 3 µM	–	–	–	0.61	–
[9], 10 µM	–	–	–	0.81	–
[9], 30 µM	–	–	–	0.15	–

drug-induced phospholipidosis [%], A549-ACE2 [8]
Conditions	0.3 µM	0.833333 µM	3.33333 µM	6.66667 µM	10 µM	30 µM
24 h	2.02	14.1	52.7	74.9	75.2	51.7
48 h	8.07	8.41	50.9	81.7	87.7	–
72 h	3.83	3.63	41.9	82	85.5	–

Conditions	drug sensitivity score	relative viability EC50 [µM]
Caco-2 [10]	–	2.8
Caco-2 [14]	3.4	–
Calu-3 [11]	–	2.02
Calu-3 [15]	7.1	–
HepG2 [12]	–	3.84
HepG2 [16]	2.2	–
U2OS [13]	–	> 10
U2OS [17]	1.5	–
Vero E6 [18]	0	–
Vero E6 [20]	–	> 10
